This experiment deals with DNA-directed RNA polymerase subunit alpha/beta/beta'/omega (Escherichia coli (strain K12), UniProt P0A7Z4+P0A800+P0A8T7+P0A8V2). The experiment is described as follows: Inhibition of Escherichia coli DNA-dependent RNA polymerase.

This is an account of results in BindingDB's records for doi:10.1021/jm00195a008 (1979).

As a reminder, the IC50 is the concentration needed to halve the response being measured. A low value points to greater potency in that assay.

Chain of DNA-directed RNA polymerase subunit alpha/beta/beta'/omega (P0A8V2 whole entry): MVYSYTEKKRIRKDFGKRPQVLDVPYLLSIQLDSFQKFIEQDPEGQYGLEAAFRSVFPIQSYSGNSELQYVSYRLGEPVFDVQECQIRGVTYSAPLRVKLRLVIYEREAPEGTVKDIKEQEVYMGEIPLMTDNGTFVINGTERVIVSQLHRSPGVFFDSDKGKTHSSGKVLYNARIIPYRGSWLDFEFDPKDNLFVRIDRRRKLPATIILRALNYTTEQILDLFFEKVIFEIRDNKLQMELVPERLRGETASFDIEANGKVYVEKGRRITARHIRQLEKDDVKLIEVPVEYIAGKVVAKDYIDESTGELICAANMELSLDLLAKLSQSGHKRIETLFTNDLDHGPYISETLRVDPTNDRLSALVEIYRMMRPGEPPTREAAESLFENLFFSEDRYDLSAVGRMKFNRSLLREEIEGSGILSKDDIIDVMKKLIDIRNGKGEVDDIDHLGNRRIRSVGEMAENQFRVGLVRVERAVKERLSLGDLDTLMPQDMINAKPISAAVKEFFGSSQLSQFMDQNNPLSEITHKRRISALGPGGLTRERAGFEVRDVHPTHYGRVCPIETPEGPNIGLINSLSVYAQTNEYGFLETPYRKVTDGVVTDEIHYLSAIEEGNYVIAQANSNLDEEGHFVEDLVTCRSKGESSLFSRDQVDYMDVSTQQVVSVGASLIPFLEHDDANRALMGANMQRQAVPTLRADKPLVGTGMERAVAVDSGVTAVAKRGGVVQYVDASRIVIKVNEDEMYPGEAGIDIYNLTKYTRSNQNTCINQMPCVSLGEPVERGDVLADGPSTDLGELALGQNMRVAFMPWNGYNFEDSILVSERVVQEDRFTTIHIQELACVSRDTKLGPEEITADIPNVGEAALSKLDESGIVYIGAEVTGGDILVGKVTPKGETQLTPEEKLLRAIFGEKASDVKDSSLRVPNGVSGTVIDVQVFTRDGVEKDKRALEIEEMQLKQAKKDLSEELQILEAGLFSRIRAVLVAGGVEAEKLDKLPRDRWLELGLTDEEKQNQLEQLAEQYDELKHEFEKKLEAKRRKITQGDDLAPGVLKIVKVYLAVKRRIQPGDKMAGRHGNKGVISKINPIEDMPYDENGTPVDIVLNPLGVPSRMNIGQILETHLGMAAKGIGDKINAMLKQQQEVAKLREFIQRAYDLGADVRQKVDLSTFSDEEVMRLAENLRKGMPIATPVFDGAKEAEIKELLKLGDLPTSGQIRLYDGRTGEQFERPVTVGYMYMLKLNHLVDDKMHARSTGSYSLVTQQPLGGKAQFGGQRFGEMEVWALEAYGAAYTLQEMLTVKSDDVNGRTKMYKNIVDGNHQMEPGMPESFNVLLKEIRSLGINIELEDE
Chain of DNA-directed RNA polymerase subunit alpha/beta/beta'/omega (P0A7Z4 whole entry): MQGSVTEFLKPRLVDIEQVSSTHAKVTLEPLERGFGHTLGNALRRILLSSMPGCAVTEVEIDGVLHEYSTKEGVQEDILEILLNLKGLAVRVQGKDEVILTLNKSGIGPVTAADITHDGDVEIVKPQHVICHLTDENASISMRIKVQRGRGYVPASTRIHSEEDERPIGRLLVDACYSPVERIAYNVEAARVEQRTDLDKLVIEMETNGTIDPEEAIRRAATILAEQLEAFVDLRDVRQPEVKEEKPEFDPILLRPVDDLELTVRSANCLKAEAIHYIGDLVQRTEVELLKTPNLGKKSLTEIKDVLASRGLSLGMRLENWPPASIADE
Chain of DNA-directed RNA polymerase subunit alpha/beta/beta'/omega (P0A8T7 whole entry): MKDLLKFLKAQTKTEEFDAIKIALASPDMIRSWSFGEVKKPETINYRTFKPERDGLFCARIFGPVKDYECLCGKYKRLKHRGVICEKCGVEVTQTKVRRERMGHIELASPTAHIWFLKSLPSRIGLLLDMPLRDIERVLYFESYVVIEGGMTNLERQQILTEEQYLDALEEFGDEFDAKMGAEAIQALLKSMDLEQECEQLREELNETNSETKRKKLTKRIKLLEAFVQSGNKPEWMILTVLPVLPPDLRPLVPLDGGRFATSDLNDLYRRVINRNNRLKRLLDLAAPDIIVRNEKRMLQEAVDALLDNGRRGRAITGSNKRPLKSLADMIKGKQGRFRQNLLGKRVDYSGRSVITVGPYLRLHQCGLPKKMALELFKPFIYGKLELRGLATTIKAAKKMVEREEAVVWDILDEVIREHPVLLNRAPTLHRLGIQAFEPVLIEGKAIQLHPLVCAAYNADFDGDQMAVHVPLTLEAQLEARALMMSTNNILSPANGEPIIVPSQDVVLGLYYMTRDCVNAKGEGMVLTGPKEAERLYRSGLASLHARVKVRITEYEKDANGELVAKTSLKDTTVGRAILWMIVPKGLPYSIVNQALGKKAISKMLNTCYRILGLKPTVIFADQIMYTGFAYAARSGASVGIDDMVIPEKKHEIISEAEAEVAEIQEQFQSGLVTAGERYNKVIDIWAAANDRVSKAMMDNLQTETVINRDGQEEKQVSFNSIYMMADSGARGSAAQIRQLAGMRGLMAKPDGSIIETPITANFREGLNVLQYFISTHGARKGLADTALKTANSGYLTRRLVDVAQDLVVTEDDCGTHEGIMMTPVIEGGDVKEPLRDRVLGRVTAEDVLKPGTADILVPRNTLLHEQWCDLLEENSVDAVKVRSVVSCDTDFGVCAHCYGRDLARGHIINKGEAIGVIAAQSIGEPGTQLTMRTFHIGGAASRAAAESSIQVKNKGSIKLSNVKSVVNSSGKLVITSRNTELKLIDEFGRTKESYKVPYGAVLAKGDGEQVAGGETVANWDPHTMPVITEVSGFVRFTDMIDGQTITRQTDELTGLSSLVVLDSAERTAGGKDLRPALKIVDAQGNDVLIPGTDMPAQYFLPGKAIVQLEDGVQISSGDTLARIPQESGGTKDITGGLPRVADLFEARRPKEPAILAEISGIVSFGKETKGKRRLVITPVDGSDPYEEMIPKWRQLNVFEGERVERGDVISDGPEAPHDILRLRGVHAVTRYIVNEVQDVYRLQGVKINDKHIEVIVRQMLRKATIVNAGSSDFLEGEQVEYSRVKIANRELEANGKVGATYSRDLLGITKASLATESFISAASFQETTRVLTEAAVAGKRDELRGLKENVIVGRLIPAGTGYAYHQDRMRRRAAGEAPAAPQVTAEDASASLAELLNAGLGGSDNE
Chain of DNA-directed RNA polymerase subunit alpha/beta/beta'/omega (P0A800 whole entry): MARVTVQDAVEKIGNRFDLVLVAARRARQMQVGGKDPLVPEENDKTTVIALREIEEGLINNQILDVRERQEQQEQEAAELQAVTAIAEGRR

As for `Cc1c2oc3c(C)ccc(C(=O)N[C@@H]4C(=O)N[C@H](C(C)C)C(=O)N5CCC[C@H]5C(=O)N(C)CC(=O)N(C)[C@@H](C(C)C)C(=O)O[C@@H]4C)c3nc-2c(C(=O)N[C@@H]2C(=O)N[C@H](C(C)C)C(=O)N3CCC[C@H]3C(=O)N(C)CC(=O)N(C)[C@@H](C(C)C)C(=O)O[C@@H]2C)c(NC2CC(C)(C)[N+]([O-])C(C)(C)C2)c1=O`, the IC50 worked out at 2800 nM.
